From US9187458B2, “Cyanoquinoline derivatives” (Tianjin Hemay Bio-Tech Co., LTD., priority 2010, dated 2015)

System: BT-474 cells
Assay: BT-474 Cell Growth Inhibition Test (SRB Assay)
Assay type: cell-based, human
Conditions: Homo sapiens, 70 h incubation
Procedure: BT-474 Cell Growth Inhibition Test (SRB Assay)
1. Cell strains: BT-474 (human breast tumor cell strains);
2. SRB: available from Sigmaaldrich, goods number: S9012, lot number: 047K3751. SRB was reserved at the room temperature. 0.4% (w/v) of working solution was formulated with 1% of glacial acetic acid. The solution was reserved at the temperature of 4° C.; anti-tumor compounds; DMSO.
Culture medium (90% EMEM+10% FBS+0.1 mM NEAA, reserved at 4° C.);
1. A plate (10 cm) of cells in logarithmic growth phase normally cultured was collected. The culture solution was sucked out. The plate was washed with 5 mL of PBS 1-2 times;
2. PBS was sucked out, and […] of 0.25% pancreatin was added to infiltrate the cells for 30 s;
3. The pancreatin was sucked out. The culture plate was pleaced in an incubator. Digestion was carried out for about 5 min at 37° C.;
4. 3 mL of complete culture solution was added to the culture plate to stop the digestion. The cells were carefully scoured with micropipette (1 ml) to give a uniform single cell suspension;
5. Cell suspension was counted. The suspension was diluted to 1×10^5/ml. The resulting suspension was developed uniformly on a plate. The plate was incubated under 5% CO2 at 37° C. overnight. In day 2, 80 μL of complete culture medium was added in each well and then 20 μL of culture solution comprising a compound was added. The mixture was incubated for 70 h under 5% CO2 at 37° C.
6. The culture solution was sucked out. 100 uL of TCA fixed cells which were diluted to 10% were added to each well. The plate was kept in a refrigerator for 1 h at 4° C.
7. TCA stationary liquid was sucked out. Each well was washed with 150 μL of ddH2O five times;
8. After the stationary liquid was cleansed, the plate was dried in the air at the room temperature;
9. 60 μL of SRB staining solution was added in each well. The well was stained for 15 min at the room temperature;
10. The SRB staining solution was sucked out. Each well was washed with 150 μL of 1% glacial acetic acid five times;
11. After the SRB staining solution was cleansed, the plate was dried in the air at the room temperature;
12. 100 μL of 10 mM Tris was added in each well. The plate was vibrated to dissolve out SRB;
13. OD values were determined at 570 nM.
(§1) 1. Calculation of Relative Inhibition Ratio The inhibition ratio of a compound on cell growth=(PC−n)/(PC−NC)×100%
IC50: Concentration of a compound where inhibition ratio was 50%. IC50 values were fitted with Origin7.5.

IC50 [nM]	Compound
390	C#Cc1cccc(Nc2c(C#N)cnc3cc(O[C@H]4CCOC4)c(NC(=O)/C=C/CN(CCOC)CCOC)cc23)c1 [Example 191, (S,E)-N-(3-CYANO-4-(3-ETHYNYLPHENYLAMINO)-7-(TETRAHYDROFURAN-3-YL-OXY)QUINOLIN-6-YL)-4-(DIMETHOXYETHYLAMINO)-BUT-2-ENAMIDE]

Same assay, conditions: Homo sapiens, BT-474, 70 h, compound 1 μM, 70 h incubation, read-out: Growth Inhibition Ratio (%)

Compound	inhibition at 1 µM [%]
CN(C)C/C=C/C(=O)Nc1cc2c(Nc3ccc(F)c(Cl)c3)c(C#N)cnc2cc1OC1CCOC1 (mixture of isomers) [Example 176, (E/Z)-N-(4-(3-CHLORO-4-FLUOROPHENYLAMINO)-3-CYANO-7-(TETRAHYDROFURAN-3-YL-OXY)QUINOLIN-6-YL)-4-(DIMETHYLAMINO)-BUT-2-ENAMIDE]	89
C#Cc1cccc(Nc2c(C#N)cnc3cc(O[C@H]4CCOC4)c(NC(=O)/C=C/CNCc4ccccc4)cc23)c1 [Example 147, (S,E)-N-(3-CYANO-4-(3-ETHYNYLPHENYLAMINO)-7-(TETRAHYDROFURAN-3-YL-OXY)QUINOLIN-6-YL)-4-(BENZYLAMINO)-BUT-2-ENAMIDE]	75
CN(C)C/C=C/C(=O)Nc1cc2c(Nc3cccc(Br)c3)c(C#N)cnc2cc1O[C@H]1CCOC1 [Example 156, (S,E)-N-(4-(3-BROMOPHENYLAMINO)-3-CYANO-7-(TETRAHYDROFURAN-3-YL-OXY)QUINOLIN-6-YL)-4-(DIMETHYLAMINO)-BUT-2-ENAMIDE]	70
CN(C)C/C=C/C(=O)Nc1cc2c(Nc3ccc(OCc4ccccc4C#N)c(Cl)c3)c(C#N)cnc2cc1O[C@H]1CCOC1 [Example 162, (S,E)-N-(4-(4-(2-CYANOBENZYLOXY)-3-CHLOROPHENYLAMINO)-3-CYANO-7-(TETRAHYDROFURAN-3-YL-OXY)QUINOLIN-6-YL)-4-(DIMETHYLAMINO)-BUT-2-ENAMIDE]	80
CCN(CC)C/C=C/C(=O)Nc1cc2c(Nc3ccc(F)c(Cl)c3)c(C#N)cnc2cc1O[C@H]1CCOC1 [Example 168, (S,E)-N-(4-(3-CHLORO-4-FLUOROPHENYLAMINO)-3-CYANO-7-(TETRAHYDROFURAN-3-YL-OXY)QUINOLIN-6-YL)-4-(DIETHYLAMINO)-BUT-2-ENAMIDE]	86
N#Cc1cnc2cc(O[C@H]3CCOC3)c(NC(=O)/C=C/CN3CCCCC3)cc2c1Nc1ccc(F)c(Cl)c1 [Example 169, (S,E)-N-(4-(3-CHLORO-4-FLUOROPHENYLAMINO)-3-CYANO-7-(TETRAHYDROFURAN-3-YL-OXY)QUINOLIN-6-YL)-4-(PIPERIDIN-1-YL)-BUT-2-ENAMIDE]	80
CCN(CC)C/C=C/C(=O)Nc1cc2c(Nc3ccc(OCc4cccc(F)c4)c(Cl)c3)c(C#N)cnc2cc1O[C@H]1CCOC1 [Example 171, (S,E)-N-(4-(4-(3-FLUOROBENZYLOXY)-3-CHLOROPHENYLAMINO)-3-CYANO-7-(TETRAHYDROFURAN-3-YL-OXY)QUINOLIN-6-YL)-4-(DIETHYLAMINO)-BUT-2-ENAMIDE]	84
N#Cc1cnc2cc(O[C@H]3CCOC3)c(NC(=O)/C=C/CN3CCCCC3)cc2c1Nc1ccc(OCc2cccc(F)c2)c(Cl)c1 [Example 172, (S,E)-N-(4-(4-(3-FLUOROBENZYLOXY)-3-CHLOROPHENYLAMINO)-3-CYANO-7-(TETRAHYDROFURAN-3-YL-OXY)QUINOLIN-6-YL)-4-(PIPERIDIN-1-YL)-BUT-2-ENAMIDE]	62
N#Cc1cnc2cc(O[C@H]3CCOC3)c(NC(=O)/C=C/CN3CCOCC3)cc2c1Nc1ccc(OCc2cccc(F)c2)c(Cl)c1 [Example 173, (S,E)-N-(4-(4-(3-FLUOROBENZYLOXY)-3-CHLOROPHENYLAMINO)-3-CYANO-7-(TETRAHYDROFURAN-3-YL-OXY)QUINOLIN-6-YL)-4-(MORPHOLIN-4-YL)-BUT-2-ENAMIDE]	67
N#Cc1cnc2cc(O[C@H]3CCOC3)c(NC(=O)/C=C/CN(CCO)CCO)cc2c1Nc1ccc(F)c(Cl)c1 [Example 192, (S,E)-N-(3-CYANO-4-(3-CHLORO-4-FLUORO-PHENYLAMINO)-7-(TETRAHYDROFURAN-3-YL-OXY)QUINOLIN-6-YL)-4-(DIETHANOLAMINO)-BUT-2-ENAMIDE]	85
CN(C/C=C/C(=O)Nc1cc2c(Nc3ccc(OCc4cccc(F)c4)c(Cl)c3)c(C#N)cnc2cc1O[C@H]1CCOC1)CCO [Example 198, (S,E)-N-(3-CYANO-4-(4-(3-FLUOROBENZYLOXY)-3-CHLOROPHENYLAMINO)-7-(TETRAHYDROFURAN-3-YL-OXY)QUINOLIN-6-YL)-4-(N-METHYLETHANOLAMINO)-BUT-2-ENAMIDE]	78
COCCN(C)C/C=C/C(=O)Nc1cc2c(Nc3ccc(OCc4ccccn4)c(Cl)c3)c(C#N)cnc2cc1O[C@H]1CCOC1 [Example 201, (S,E)-N-(3-CYANO-4-(3-CHLORO-4-(PYRIDIN-2-YL-METHOXY)PHENYLAMINO)-7-(TETRAHYDROFURAN-3-YL-OXY)QUINOLIN-6-YL)-4-(N-METHYLMETHOXY ETHYLAMINO)-BUT-2-ENAMIDE]	80
COCCN(C/C=C/C(=O)Nc1cc2c(Nc3ccc(OCc4ccccn4)c(Cl)c3)c(C#N)cnc2cc1O[C@H]1CCOC1)CCOC [Example 203]	82
N#Cc1cnc2cc(O[C@H]3CCOC3)c(NC(=O)/C=C/CNCCCCCCO)cc2c1Nc1ccc(F)c(Cl)c1 [Example 205, (S,E)-N-(3-CYANO-4-(3-CHLORO-4-FLUORO-PHENYLAMINO)-7-(TETRAHYDROFURAN-3-YL-OXY)QUINOLIN-6-YL)-4-(6-HYDROXYHEXYLAMINO)-BUT-2-ENAMIDE]	75

Same assay, conditions: compound 1 μM, 70 h incubation

Compound	Growth Inhibition Ratio (%)
CCN(CC)C/C=C/C(=O)Nc1cc2c(Nc3ccc(OCc4ccccn4)c(Cl)c3)c(C#N)cnc2cc1O[C@H]1CCOC1 [Example 184, (S,E/Z)-N-(4-(3-CHLORO-4-(PYRIDIN-2-YL-METHOXY)PHENYLAMINO)-3-CYANO-7-(TETRAHYDROFURAN-3-YL-OXY)QUINOLIN-6-YL)-4-(DIETHYLAMINO)-BUT-2-ENAMIDE]	83
N#Cc1cnc2cc(O[C@H]3CCOC3)c(NC(=O)/C=C/CN3CCOCC3)cc2c1Nc1ccc(OCc2ccccn2)c(Cl)c1 [Example 186, (S,E/Z)-N-(4-(3-CHLORO-4-(PYRIDIN-2-YL-METHOXY)PHENYLAMINO)-3-CYANO-7-(TETRAHYDROFURAN-3-YL-OXY)QUINOLIN-6-YL)-4-(MORPHOLIN-4-YL)-BUT-2-ENAMIDE]	80

System: A431 cells
Assay: A431 Cell Growth Inhibition Test (MTT Assay)
Assay type: cell-based, human
Conditions: Homo sapiens, A-431, 68 h, compound 1 μM, 68 h incubation, read-out: Growth Inhibition Ratio (%)
Procedure: A431 Cell Growth Inhibition Test (MTT Assay)
1. Cell strains: A431 (human epithelial […] cell strains);
Culture medium: 45% DMEM, 45% F12+10% FBS;
1. A plate (10 cm) of cells in logarithmic growth phase normally cultured was collected;
2. The culture solution was sucked out. The plate was washed with 5 ml of PBS 1-2 times;
3. PBS was sucked out, and 2 ml of 0.25% pancreatin was added to infiltrate the cells for 1 min;
4. The pancreatin was sucked out, and the culture plate was placed in an incubator. Digestion was carried out for about 15 min at 37° C.;
5. 4 ml of complete culture solution was added in the culture plate to stop the digestion. The cells were carefully scoured with micropipette (1 ml) to give a uniform cell suspension. The suspension was implanted into a 96-well cell culture plate by 2500 cells/100 μl per well. The culture plate was incubated overnight under 5% CO2 at 37° C. In day 2, 100 μl of culture solution comprising the compound was added in each well, and further incubated for 68 h under 5% CO2 at 37° C.
6. The culture solution was sucked out;
7. 100 μl of serum-free culture solution containing 0.5 mg/ml MTT was added in each well, and incubated for 4 h;
8. The culture solution was carefully sucked out;
9. 100 μl of DMSO was added into each well and vibrated to dissolve;
10. OD values were determined at 490 nM.
as §1
IC50: concentration of a compound where inhibition ratio was 50%. IC50 values were fitted with Origin7.5.

Compound	inhibition at 1 µM [%]
CN(C)C/C=C/C(=O)Nc1cc2c(Nc3ccc(F)c(Cl)c3)c(C#N)cnc2cc1OC1CCOC1 (mixture of isomers) [Example 176, (E/Z)-N-(4-(3-CHLORO-4-FLUOROPHENYLAMINO)-3-CYANO-7-(TETRAHYDROFURAN-3-YL-OXY)QUINOLIN-6-YL)-4-(DIMETHYLAMINO)-BUT-2-ENAMIDE]	79
CN(C)C/C=C/C(=O)Nc1cc2c(Nc3ccc(OCc4ccccc4)cc3)c(C#N)cnc2cc1O[C@H]1CCOC1 [Example 155, (S,E)-N-(4-(4-(BENZYLOXY)PHENYLAMINO)-3-CYANO-7-(TETRAHYDROFURAN-3-YL-OXY)QUINOLIN-6-YL)-4-(DIMETHYLAMINO)-BUT-2-ENAMIDE]	82
CN(C)C/C=C/C(=O)Nc1cc2c(Nc3ccc(OCc4ccccc4F)c(Cl)c3)c(C#N)cnc2cc1O[C@H]1CCOC1 [Example 157, (S,E)-N-(4-(4-(2-FLUOROBENZYLOXY)-3-CHLOROPHENYLAMINO)-3-CYANO-7-(TETRAHYDROFURAN-3-YL-OXY)QUINOLIN-6-YL)-4-(DIMETHYLAMINO)-BUT-2-ENAMIDE]	72
N#Cc1cnc2cc(O[C@H]3CCOC3)c(NC(=O)/C=C/CN3CCCCC3)cc2c1Nc1ccc(OCc2ccccn2)c(Cl)c1 [Example 185, (S,E/Z)-N-(4-(3-CHLORO-4-(PYRIDIN-2-YL-METHOXY)PHENYLAMINO)-3-CYANO-7-(TETRAHYDROFURAN-3-YL-OXY)QUINOLIN-6-YL)-4-(PIPERIDIN-1-YL)-BUT-2-ENAMIDE]	70
